Laboratory results taken from ChEMBL document CHEMBL1201862, “PubChem BioAssay data set” (2004).
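These data come from cells grown in 96-well plates and exposed to compound for 48 hours at five concentrations. The concentration for 50% growth inhibition is given as GI50.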 Calls of active or inactive are those of the source. Cut-off read from the data, not from the text of the source: active = GI50 up to about 1.1 µM and inactive = higher.

Legend:
Assay in all cases: inhibition of tumour cell growth, NCI panel, 48 h
LOX IMVI = tested on: LOX IMVI
Malme-3M = tested on: Malme-3M
NCI-H460 = tested on: NCI-H460
OVCAR-5 = tested on: OVCAR-5
HOP-62 = tested on: HOP-62
SK-MEL-2 = tested on: SK-MEL-2
UO-31 = tested on: UO-31
MOLT-4 = tested on: MOLT-4
SK-MEL-5 = tested on: SK-MEL-5
A549 = tested on: A549
UACC-62 = tested on: UACC-62
HCC 2998 = tested on: HCC 2998
EKVX = tested on: EKVX
SK-OV-3 = tested on: SK-OV-3
COLO 205 = tested on: COLO 205
KM12 = tested on: KM12
SF-295 = tested on: SF-295
SNB-19 = tested on: SNB-19
CAKI-1 = tested on: CAKI-1
CCRF-CEM = tested on: CCRF-CEM

Measured: GI50

COc1cc(/C=C/C(=O)OC[C@]23O[C@H]2[C@@H](OC2OC(C)C(O)C(O)C2O)C2C=CO[C@@H](OC4OC(CO)C(O)C(O)C4O)C23)ccc1O (stereo not given in full)
inactive: LOX IMVI > 100 µM | Malme-3M > 100 µM | NCI-H460 > 100 µM | OVCAR-5 > 100 µM | HOP-62 > 100 µM | SK-MEL-2 > 100 µM | UO-31 > 100 µM | MOLT-4 > 100 µM | SK-MEL-5 > 100 µM | A549 > 100 µM | UACC-62 > 100 µM | HCC 2998 > 100 µM | EKVX > 100 µM | SK-OV-3 > 100 µM | COLO 205 > 100 µM | KM12 > 100 µM | SF-295 > 100 µM | SNB-19 > 100 µM

CC1=C(C(=O)NCCCN(CCO)CCO)CC(C(=O)NCCCN(CCO)CCO)=C(C)N1
inactive: LOX IMVI > 100 µM | NCI-H460 > 100 µM | OVCAR-5 > 100 µM | HOP-62 > 100 µM | CAKI-1 > 100 µM | SK-MEL-2 > 100 µM | CCRF-CEM 19.1 µM | UO-31 93.5 µM | MOLT-4 > 100 µM | SK-MEL-5 22.2 µM | A549 > 100 µM | UACC-62 > 100 µM | HCC 2998 > 100 µM | EKVX > 100 µM | SK-OV-3 > 100 µM | COLO 205 > 100 µM | KM12 85.1 µM | SF-295 > 100 µM | SNB-19 66.4 µM

O=C(NNC(=O)c1ccc(Cl)cc1NC(=O)C12CC3CC(CC(C3)C1)C2)c1ccc(Cl)cc1
inactive: LOX IMVI 18.5 µM | Malme-3M 11.4 µM | NCI-H460 23.2 µM | OVCAR-5 28.3 µM | HOP-62 19.8 µM | CAKI-1 24.4 µM | CCRF-CEM 23.4 µM | UO-31 17.1 µM | MOLT-4 30.1 µM | SK-MEL-5 18 µM | A549 19.5 µM | UACC-62 21.7 µM | HCC 2998 17.1 µM | EKVX 23.2 µM | SK-OV-3 25.3 µM | COLO 205 14.5 µM | KM12 20.3 µM | SF-295 22.9 µM | SNB-19 19.1 µM

Cc1ccc(C)c(NC(=O)C(=O)C(c2cnc3ccc([N+](=O)[O-])cc3n2)[N+](=O)[O-])c1 (stereo not given)
inactive: Malme-3M > 100 µM | NCI-H460 42.7 µM | OVCAR-5 > 100 µM | HOP-62 20.9 µM | SK-MEL-2 > 100 µM | CCRF-CEM 24.4 µM | UO-31 29.2 µM | MOLT-4 25.9 µM | SK-MEL-5 48.3 µM | A549 58.3 µM | UACC-62 64.1 µM | HCC 2998 55.8 µM | EKVX 30.8 µM | SK-OV-3 32.4 µM | COLO 205 60.8 µM | KM12 20.1 µM | SF-295 > 100 µM | SNB-19 > 100 µM

N#CC(C(=N/NC(N)=S)/C(=N\NC(N)=S)C(C#N)c1ccccc1)c1ccccc1 (stereo not given)
inactive: LOX IMVI > 10 µM | Malme-3M > 10 µM | NCI-H460 > 10 µM | OVCAR-5 > 10 µM | HOP-62 > 10 µM | SK-MEL-2 > 10 µM | CCRF-CEM > 10 µM | UO-31 > 10 µM | MOLT-4 > 10 µM | A549 > 10 µM | UACC-62 > 10 µM | HCC 2998 > 10 µM | EKVX > 10 µM | SK-OV-3 > 10 µM | COLO 205 > 10 µM | KM12 > 10 µM | SF-295 > 10 µM | SNB-19 > 10 µM

c1ccc(-c2cs[s+]c2)cc1
inactive: LOX IMVI > 100 µM | Malme-3M > 100 µM | NCI-H460 31.8 µM | OVCAR-5 > 100 µM | HOP-62 > 100 µM | CAKI-1 > 100 µM | CCRF-CEM 22.9 µM | UO-31 > 100 µM | MOLT-4 26.5 µM | SK-MEL-5 > 100 µM | A549 > 100 µM | UACC-62 > 100 µM | HCC 2998 > 100 µM | EKVX > 100 µM | SK-OV-3 > 100 µM | COLO 205 > 100 µM | KM12 > 100 µM | SF-295 > 100 µM | SNB-19 > 100 µM

COc1ccc(CCCCl)c(C2=NCCc3cc(OC)c(OC)cc32)c1
inactive: NCI-H460 37.8 µM | OVCAR-5 > 100 µM | HOP-62 91.2 µM | CAKI-1 39.7 µM | SK-MEL-2 39.7 µM | CCRF-CEM 92.5 µM | UO-31 38 µM | MOLT-4 41.6 µM | SK-MEL-5 26.1 µM | A549 69.7 µM | UACC-62 32.8 µM | HCC 2998 48.4 µM | EKVX 53.6 µM | SK-OV-3 > 100 µM | COLO 205 25.7 µM | KM12 38.8 µM | SF-295 48.5 µM | SNB-19 30 µM

CC(Nc1cc(=O)n(C)c(=O)[nH]1)c1ccccc1 (stereo not given)
inactive: LOX IMVI > 100 µM | NCI-H460 > 100 µM | OVCAR-5 > 100 µM | HOP-62 > 100 µM | CAKI-1 > 100 µM | SK-MEL-2 > 100 µM | CCRF-CEM > 100 µM | UO-31 > 100 µM | MOLT-4 > 100 µM | SK-MEL-5 > 100 µM | A549 > 100 µM | UACC-62 > 100 µM | HCC 2998 > 100 µM | EKVX > 100 µM | COLO 205 > 100 µM | KM12 > 100 µM | SF-295 > 100 µM | SNB-19 > 100 µM

COC(=O)c1cc2c(cc1C(=O)OC)[C@@]1(C)CCCC(C)(C)C1CC2 (stereo not given in full)
inactive: LOX IMVI 18.1 µM | Malme-3M 1.22 µM | NCI-H460 20.3 µM | OVCAR-5 18.3 µM | HOP-62 23.8 µM | SK-MEL-2 17.1 µM | CCRF-CEM 16.7 µM | UO-31 17.8 µM | MOLT-4 15.1 µM | SK-MEL-5 16.2 µM | A549 19.4 µM | UACC-62 12.2 µM | HCC 2998 17.4 µM | EKVX 13.3 µM | KM12 15.2 µM | SF-295 16.3 µM | SNB-19 23.7 µM

COC(=O)/C=C1/CCC(C(=O)OC)N1 (stereo not given)
inactive: LOX IMVI > 100 µM | NCI-H460 > 100 µM | HOP-62 > 100 µM | CAKI-1 > 100 µM | SK-MEL-2 > 100 µM | CCRF-CEM > 100 µM | UO-31 > 100 µM | MOLT-4 > 100 µM | SK-MEL-5 > 100 µM | A549 > 100 µM | UACC-62 > 100 µM | HCC 2998 > 100 µM | EKVX > 100 µM | SK-OV-3 > 100 µM | COLO 205 > 100 µM | KM12 > 100 µM | SF-295 > 100 µM | SNB-19 > 100 µM

CCCCCCCCCCCCCC(=O)NCC(OCC)OCC
inactive: LOX IMVI > 100 µM | Malme-3M > 100 µM | NCI-H460 > 100 µM | OVCAR-5 > 100 µM | HOP-62 > 100 µM | SK-MEL-2 > 100 µM | CCRF-CEM > 100 µM | UO-31 > 100 µM | SK-MEL-5 > 100 µM | A549 > 100 µM | UACC-62 > 100 µM | HCC 2998 > 100 µM | EKVX > 100 µM | SK-OV-3 > 100 µM | COLO 205 > 100 µM | KM12 > 100 µM | SF-295 > 100 µM | SNB-19 > 100 µM
